From patent US20060229358A1, “Pharmaceutical composition containing flavonoids” (Taipei Medical University, priority 2005, published 2006)

Test system: PDE1
Test: Inhibition of cyclic nucleotide PDE activity (Assay I), PDE1
Format: biochemical, guinea pig
Settings: mean ± S.E.M. (n); read-out: IC50 on phosphodiesterase isozyme 1
Method: Under a protocol approved by the Animal Care and Use Committee of Taipei Medical University, five male guinea pigs (Hartley), weighing 500-600 g, were sacrificed. The lungs (15 g) or hearts (4 g) taken therefrom were chopped into small pieces and homogenized with a glass/teflon homogenizer (Glas-Col, Terre Haute, Ind., USA) in 10 volumes of cold medium (pH 6.5) containing 20 mM Bis-Tris, 2 mM benzamidine, 2 mM EDTA, 50 mM sodium chloride, 0.1 mM phenylmethanesulfonyl fluoride (PMSF), and 1 mM dithiothreitol. At 4° C., the homogenate was centrifuged at 170 g for 15 min, and the supernatant thereof was then re-centrifuged at 40,000 g for 30 min. The final supernatant fraction was filtered through the 0.22 μm filter and applied to a Q-sepharose fast flow column (2.2×28 cm), which is pre-washed and pre-equilibrated in homogenization buffer. The column was washed with two bed volumes of homogenate buffer to remove unbound material, where the resin beads therein will bind with proteins, such as PDE proteins. Proteins bound to the Q-sepharose beads were eluted with various concentrations (0.23, 0.34, 0.44, 0.69, and 1.00 M) of NaCl dissolved in homogenate buffer (for each concentration, 40-50 mL elution buffer were applied) at a flow rate of 30 ml/h. Fractions (3 ml each) were collected, and ethylene glycol (EG) was added thereto until a final concentration of 30% (v/v). And then the samples were frozen at −70° C. Under these conditions, the enzyme activity was stable for at least 3 months.
In order to eliminate possible contamination of PDE5 by PDE1, the above-collected fractions with enzyme activity was further purified on a calmodulin-agarose column. The column (1.6 cm×4 cm) was pre-equilibrated by a buffer A, which contains 20 mM Bis-tris, 1 mM dithiothreitol, 2 mM benzamidine, 50 mM NaCl, 3 mMMgCl2, 0.1 mM CaCl2, and 0.1 mM PMSF, pH 6.5. The sample (the mixture of PDE5 and PDE1), being purified by the above-mentioned column, with the CaCl2 concentration thereof adjusted to at least 2 mM previously, was loaded and allowed to be absorbed on the gel for 30 min. Then, the PDE isozymes were eluted by stepwise elution using 20 ml of buffer A with 1 M NaCl followed by 20 ml of buffer A with 1 M NaCl and with 1 mM EGTA. PDE5 was collected first followed by PDE1.
The activities of PDE1-5 in the homogenate were measured with a two-step procedure according to the method of Thompson and Appleman, using cAMP with [^3H]-cAMP or cGMP with [^3 H]-cGMP as substrates. The PDE enzyme prepared (25 μl) with 10 μl inhibitor or the solvents therefor was incubated for 30 min at 37° C. in a total assay buffer, where the final volume of the assay is amounted to 100 μl. In accordance with the features of the PDE isozymes, the assay buffer contains 50 mM Tris/HCl (pH 7.4), 3 mM MgCl2, 1 mM dithiothreitol, and 0.05% BSA, and optionally contains 1 uM cAMP with 0.2 μCi [^3H]-cAMP as a substrate alone or in the presence of 0.1 unit calmodulin with 10 μM CaCl2, or 5 μM cGMP, and 1 μM cGMP with 0.2 μCi [^3H]-cGMP as another substrate alone or in the presence of 0.1 unit calmodulin with 10 μM CaCl2. In assay of enzyme inhibition, the assay mixture contained with the inhibitors at various concentrations of flavonoids in the Table 1 or the selective PDE1-5 inhibitors as reference drugs. For example, the selective PDE1-5 inhibitors are vinpocetin [30], EHNA [31], milrinone, Ro 20-1724 [33], and zaprinast, respectively.
The PDE enzyme and the inhibitors (or their solvent) therefor were mixed and incubated on ice for 30 min previously, and then mixed with the assay buffer. The assay was initiated by transferring the mixture to a water bath at 37° C. Following the other 30 min incubation, the reaction was stopped by transferring the reaction vessel to a bath of boiling water for 3 min. After cooling on ice, 20 μl of the 1 mg/ml of Crotalus atrox venom was added to the reaction mixture, and the mixture was incubated at 37° C. for 10 min. […]

O=c1cc(-c2ccc(O)cc2)oc2cc(O)cc(O)c12 [Apigenin] and O=c1cc(-c2ccc(O)c(O)c2)oc2cc(O)cc(O)c12 [Luteolin] are within error of each other in IC50: 25.4 ± 3.7 µM for the first, 21.5 ± 2.9 µM for the second.

First: COc1ccc(-c2coc3cc(O)cc(O)c3c2=O)cc1 [Biochanin A]
Second: COc1cc(O)c2c(=O)c(-c3ccc(O)cc3)coc2c1 [Prunetin]
The IC50 of the first is lower: 29.1 ± 0.3 µM for the first, > 100 µM for the second.

First: O=c1cc(-c2ccccc2)oc2cc(O)cc(O)c12 [Chrysin]
Second: O=c1c(-c2ccc(O)cc2)coc2cc(O)cc(O)c12 [Genistein]
The IC50 of the first is higher: > 100 µM for the first, 16.8 ± 2.3 µM for the second.

Going from O=c1c(-c2ccc(O)cc2)coc2cc(O)ccc12 [Daidzein] to O=c1c(O)c(-c2ccc(O)c(O)c2)oc2cc(O)cc(O)c12 [Quercetin], the IC50 falls from > 100 µM to 27.8 ± 5.7 µM.

O=C1CC(c2ccc(O)c(O)c2)Oc2cc(O)cc(O)c21 (stereo not drawn) [Eriodictyol] and COc1ccc(C2CC(=O)c3c(O)cc(O)cc3O2)cc1O (stereo not drawn) [Hesperetin] cannot be ordered by IC50: > 100 µM for the first, > 100 µM for the second.

Going from O=c1cc(-c2ccc(O)c(O)c2)oc2cc(O[C@@H]3O[C@H](CO)[C@@H](O)[C@H](O)[C@H]3O)cc(O)c12 [Luteolin-7-glucoside] to O=c1c(O)c(-c2cc(O)c(O)c(O)c2)oc2cc(O)cc(O)c12 [Myricetin], the IC50 falls from > 100 µM to 24.9 ± 3.6 µM.
